Results taken from US8383084B2, “Destruction of spores through glycoconjugate enhanced phagocytosis” (priority 2006, dated 2013).
Like-named read-outs stand apart in the source and are kept apart here.

Legend:
murine macrophages [1] = system: murine macrophages
murine macrophages [2] = assay: Comet assay (tail vs. head) and phagocyte diameter; type: cell-based, C57BL/6 mice; details: for diameter of phagocytes upon uptaking glycoconjugate-coated spores: compared to macrophages only, spores only, glycoconjugate alone; for uptake of coated spores and spore-induced cell death: glycoconjugate-coated spores, B; for uptake of coated spores and spore-induced cell death / effect of glycoconjugate-treated spores on murine macrophages (Comet assay): FIG. 10A; for diameter of phagocytic cells, glycoconjugate alone: glycoconjugates alone, dilutions 10^0, 10^-2, 10^-4; for effect of glycoconjugate-treated spores on murine macrophages (Comet assay): macrophages exposed to treated spores, 10B; for effect of glycoconjugate alone on macrophages (Comet assay): macrophages treated with glycoconjugate only, FIG. 10E, 10F
Procedure: Possible induction of apoptosis was determined by Comet assay (FIG. 10) using Trevigen (Gaithersburg, Md.) Comet assay kit and analyzed under epifluorescence microscope (FIG. 10). Nuclei with damaged DNA have the appearance of a comet with a bright head and a tail, whereas nuclei with undamaged DNA appear round, with no tail. Ration tail vs. head was measured in order to determine apoptosis (FIG. 10).

B. cereus spores [3] = type: cell-based, Bacillus cereus ATCC 11778
murine macrophages [4] = type: cell-based, C57BL/6 mice
human macrophages = type: cell-based
B. cereus spores [5] = type: cell-based, Bacillus cereus ATCC 11778; remark: listed apart in the source
murine macrophages [6] = type: cell-based, C57BL/6 mice; remark: listed apart in the source

Substance | macrophage viability (murine macrophages [1]) | diameter of phagocytes upon uptaking glycoconjugate-coated spores (murine macrophages [2]) | uptake of coated spores and spore-induced cell death (murine macrophages [2]) | diameter of phagocytic cells, glycoconjugate alone (murine macrophages [2]) | effect of glycoconjugate-treated spores on murine macrophages (Comet assay) (murine macrophages [2]) | effect of glycoconjugate alone on macrophages (Comet assay) (murine macrophages [2]) | destruction of spores (B. cereus spores [3]) | dose at which 50% of the spores were killed (B. cereus spores [3]) | induction of macrophage NO production (murine macrophages [4]) | macrophage NO production (extent) (murine macrophages [4]) | human macrophage NO production (human macrophages) | destruction of spores, following spores' exposure (B. cereus spores [5]) | destruction of spores, prior to exposure (B. cereus spores [5]) | destruction of the spores (in words) (B. cereus spores [5]) | spores killed, following exposure condition (B. cereus spores [5]) | spores killed, prior to and during exposure conditions (B. cereus spores [5]) | LDH release/production (murine macrophages [6]) | destruction of the spores (in words) (B. cereus spores [3])
GalNAcα1-3 GalNAcβ-PAA-flu [GalNAcα1-3GalNAcβ-PAA-flu] | up to 87% | increased | stimulates the uptake of coated spores and protect from spore-induced cell death | do not affect the diameter of phagocytic cells | pro-apoptotic effects | do not induce death | 86.4% | 100 pg/mL | induced macrophage NO production | less stimulatory | stimulate human macrophage nitric oxide (NO) production | 76.4% | 65.5% | almost total destruction of the spores | ~50% | 70-80% | 11.9% | –
Galα1-3 GalNAcα-PAA-flu [Galα1-3GalNAcα-PAA-flu] | ≤ 97.8% | increased | stimulates the uptake of coated spores and protect from spore-induced cell death | do not affect the diameter of phagocytic cells | pro-apoptotic effects | do not induce death | 89.4% | 1 pg/mL | induced macrophage NO production | doubled | – | – | – | – | – | – | 8.9% | almost total destruction of the spores
